Measured values as given in patent US12472208B2 (priority 2013, dated 2025).

Experiments:
[1] = system: illness spreading through the player population; details: over 300 players, 2014 training period, about 4 hours per day, PHPG about 0.3 ppm; historically two to five players miss three to four days per week
[2] = system: bronchitis, colds, or flu; details: in vivo
[3] = system: cold, flu, or other respiratory illness; details: in vivo
DNA = details: cited from earlier work

For `OO` [PHPG, hydrogen peroxide], the “players missing training days due to illness during spring training” value [1] was “only one player missed one training day due to illness”, the “occurrence of bronchitis, colds, or flu” value [2] was “did not suffer bronchitis, colds, or flu” and the “subjects contracting cold, flu, or other respiratory illness” value [3] was “none of the subjects contracted cold, flu, or other respiratory illness”. For the same molecule, the “adverse effects of exposure” value (subject; continuous exposure) was “no adverse effects” and the toxicity (subject; levels up to 7 ppm) was “non-toxic”.

For `N#CSO` [OSCN−, hypothiocyanate], the mutagenicity / safety (DNA) is listed as “non-mutagenic”.
